Measurements as given in ChEMBL document CHEMBL5712916, “Frequent upregulation of G9a promotes RelB-dependent proliferation and survival in multiple myeloma” (Exp Hematol Oncol, 2020).
Active and inactive are the calls of the source. The rule behind the calls is not given here.

Key:
[1] = Cytotoxicity against human Bortezomib-resistant RPMI-8226 cells assessed as reduction in cell viability measured after 72 hrs by MTS assay; format: functional, cell-based; conditions: Bortezomib-resistant RPMI-8226, 72 h
[2] = system: RPMI-8226; assay: Cytotoxicity against human RPMI-8226 cells assessed as reduction in cell viability measured after 72 hrs by MTS assay; format: functional, cell-based; conditions: RPMI-8226, 72 h
[3] = system: JJN-3; assay: Cytotoxicity against human JJN-3 cells assessed as reduction in cell viability measured after 72 hrs by MTS assay; format: functional, cell-based; conditions: JJN-3, 72 h
[4] = system: KMS-12-BM; assay: Cytotoxicity against human KMS-12-BM cells assessed as reduction in cell viability measured after 72 hrs by MTS assay; format: functional, cell-based
[5] = Cytotoxicity against human Bortezomib-resistant RPMI-8226 cells assessed as reduction in cell viability measured after 72 hrs by Celltiter-glo luminescent cell viability assay; format: functional, cell-based; conditions: Bortezomib-resistant RPMI-8226, 72 h
[6] = system: RPMI-8226; assay: Cytotoxicity against human RPMI-8226 cells assessed as reduction in cell viability measured after 72 hrs by Celltiter-glo luminescent cell viability assay; format: functional, cell-based; conditions: RPMI-8226, 72 h
[7] = system: JJN-3; assay: Cytotoxicity against human JJN-3 cells assessed as reduction in cell viability measured after 72 hrs by Celltiter-glo luminescent cell viability assay; format: functional, cell-based; conditions: JJN-3, 72 h
[8] = system: KMS-12-BM; assay: Cytotoxicity against human KMS-12-BM cells assessed as reduction in cell viability measured after 72 hrs by Celltiter-glo luminescent cell viability assay; format: functional, cell-based
[9] = system: KMS-12-BM; assay: Cytotoxicity against human KMS-12-BM cells expressing shNT assessed as reduction in cell viability measured after 72 hrs by Celltiter-glo luminescent cell viability assay; format: functional, cell-based
[10] = target: T1, Histone-lysine N-methyltransferase EHMT2 (Homo sapiens) (UniProt Q96KQ7); assay: Inhibition of G9a in human KMS-12-BM cells assessed as reduction in H3K9me2 level at cytotoxic IC50 measured after 72 hrs by Western blot analysis; format: cell-based
T1 sequence (whole entry): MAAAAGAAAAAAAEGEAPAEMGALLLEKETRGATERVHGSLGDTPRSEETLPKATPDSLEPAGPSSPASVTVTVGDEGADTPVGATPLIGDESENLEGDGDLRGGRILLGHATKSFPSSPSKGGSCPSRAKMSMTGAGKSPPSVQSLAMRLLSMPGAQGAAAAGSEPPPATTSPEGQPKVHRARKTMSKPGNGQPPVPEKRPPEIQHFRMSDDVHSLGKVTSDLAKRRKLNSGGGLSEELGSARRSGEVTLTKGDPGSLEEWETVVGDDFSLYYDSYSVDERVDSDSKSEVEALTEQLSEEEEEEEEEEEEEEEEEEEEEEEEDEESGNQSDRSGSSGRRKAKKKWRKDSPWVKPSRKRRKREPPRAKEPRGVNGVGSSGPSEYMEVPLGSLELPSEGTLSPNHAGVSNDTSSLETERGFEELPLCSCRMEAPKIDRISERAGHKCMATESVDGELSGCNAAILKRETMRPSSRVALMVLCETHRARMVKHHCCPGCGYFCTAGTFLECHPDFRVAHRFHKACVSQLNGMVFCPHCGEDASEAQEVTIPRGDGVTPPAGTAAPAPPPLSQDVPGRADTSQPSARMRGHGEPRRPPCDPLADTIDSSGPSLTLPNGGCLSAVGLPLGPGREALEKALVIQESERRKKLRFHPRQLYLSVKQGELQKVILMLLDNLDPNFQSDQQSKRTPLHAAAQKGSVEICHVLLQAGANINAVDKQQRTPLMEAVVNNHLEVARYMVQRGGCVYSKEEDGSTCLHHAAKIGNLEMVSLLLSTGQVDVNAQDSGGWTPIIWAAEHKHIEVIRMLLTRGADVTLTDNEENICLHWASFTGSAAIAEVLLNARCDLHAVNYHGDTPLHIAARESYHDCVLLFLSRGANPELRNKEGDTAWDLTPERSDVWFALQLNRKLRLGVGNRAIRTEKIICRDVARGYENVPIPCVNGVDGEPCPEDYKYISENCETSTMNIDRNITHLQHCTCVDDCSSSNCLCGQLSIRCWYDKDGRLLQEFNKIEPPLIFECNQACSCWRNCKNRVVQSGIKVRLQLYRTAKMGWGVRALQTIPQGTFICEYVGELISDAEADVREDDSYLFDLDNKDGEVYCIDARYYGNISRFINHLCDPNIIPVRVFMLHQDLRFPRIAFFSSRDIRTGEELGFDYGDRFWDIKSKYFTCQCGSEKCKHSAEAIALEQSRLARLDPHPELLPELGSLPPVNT

[11] = system: KMS-12-BM; assay: Effect on G9a expression in human KMS-12-BM cells at cytotoxic IC50 measured after 72 hrs by Western blot analysis; format: functional, cell-based
[12] = target: T1, Histone-lysine N-methyltransferase EHMT2 (Homo sapiens); assay: Inhibition of G9a in human JJN-3 cells assessed as reduction in RelB mRNA expression at cytotoxic IC50 measured after 72 hrs by qRT-PCR analysis; format: cell-based
[13] = target: T1, Histone-lysine N-methyltransferase EHMT2 (Homo sapiens); assay: Inhibition of G9a in human JJN-3 cells assessed as increase in BMF mRNA expression at cytotoxic IC50 measured after 72 hrs by qRT-PCR analysis; format: cell-based
[14] = system: KMS-12-BM; assay: Cytotoxicity against human KMS-12-BM cells expressing shG9a assessed as reduction in cell viability measured after 72 hrs by Celltiter-glo luminescent cell viability assay; format: functional, cell-based
[15] = system: KMS-12-BM; assay: Cytotoxicity against human KMS-12-BM cells assessed as decrease in number of colonies incubated for 14 days by colony formation assay; format: functional, cell-based; conditions: time 14.0 day
[16] = system: JJN-3; assay: Cytotoxicity against human JJN-3 cells assessed as decrease in number of colonies incubated for 14 days by colony formation assay; format: functional, cell-based; conditions: time 14.0 day
[17] = target: Histone-lysine N-methyltransferase EZH2 (Homo sapiens, UniProt Q15910); assay: Inhibition of EZH2 (unknown origin)
[18] = Cytotoxicity against human MSC cells assessed as reduction in cell viability measured after 72 hrs by MTS assay; format: toxicity, cell-based
[19] = Cytotoxicity against human CD38-positive cells assessed as reduction in cell viability measured after 72 hrs by Celltiter-glo luminescent cell viability assay; format: toxicity, cell-based
[20] = system: JJN-3; assay: Cytotoxicity against human JJN-3 cells expressing shNT assessed as reduction in cell viability measured after 72 hrs by Celltiter-glo luminescent cell viability assay; format: functional, cell-based; conditions: JJN-3, 72 h
[21] = system: JJN-3; assay: Cytotoxicity against human JJN-3 cells expressing shG9a assessed as reduction in cell viability measured after 72 hrs by Celltiter-glo luminescent cell viability assay; format: functional, cell-based; conditions: JJN-3, 72 h
[22] = system: KMS-12-BM; assay: Cytotoxicity against human KMS-12-BM cells assessed as reduction in colony size incubated for 14 days by colony formation assay; format: functional, cell-based; conditions: time 14.0 day
[23] = system: JJN-3; assay: Cytotoxicity against human JJN-3 cells assessed as reduction in colony size incubated for 14 days by colony formation assay; format: functional, cell-based; conditions: time 14.0 day
[24] = target: T1, Histone-lysine N-methyltransferase EHMT2 (Homo sapiens); assay: Inhibition of G9a in human JJN-3 cells assessed as increase in Bim mRNA expression at cytotoxic IC50 measured after 72 hrs by qRT-PCR analysis; format: cell-based
[25] = target: T1, Histone-lysine N-methyltransferase EHMT2 (Homo sapiens); assay: Inhibition of G9a in human JJN-3 cells assessed as decrease in NFKB2 expression at cytotoxic IC50 measured after 72 hrs by Western blot analysis; format: cell-based
[26] = target: T1, Histone-lysine N-methyltransferase EHMT2 (Homo sapiens); assay: Inhibition of G9a in human JJN-3 cells assessed as decrease in p100 expression at cytotoxic IC50 measured after 72 hrs by Western blot analysis; format: cell-based
[27] = target: T1, Histone-lysine N-methyltransferase EHMT2 (Homo sapiens); assay: Inhibition of G9a in human JJN-3 cells assessed as decrease in p52 expression at cytotoxic IC50 measured after 72 hrs by Western blot analysis; format: cell-based

Chain of Histone-lysine N-methyltransferase EZH2 (Q15910 whole entry): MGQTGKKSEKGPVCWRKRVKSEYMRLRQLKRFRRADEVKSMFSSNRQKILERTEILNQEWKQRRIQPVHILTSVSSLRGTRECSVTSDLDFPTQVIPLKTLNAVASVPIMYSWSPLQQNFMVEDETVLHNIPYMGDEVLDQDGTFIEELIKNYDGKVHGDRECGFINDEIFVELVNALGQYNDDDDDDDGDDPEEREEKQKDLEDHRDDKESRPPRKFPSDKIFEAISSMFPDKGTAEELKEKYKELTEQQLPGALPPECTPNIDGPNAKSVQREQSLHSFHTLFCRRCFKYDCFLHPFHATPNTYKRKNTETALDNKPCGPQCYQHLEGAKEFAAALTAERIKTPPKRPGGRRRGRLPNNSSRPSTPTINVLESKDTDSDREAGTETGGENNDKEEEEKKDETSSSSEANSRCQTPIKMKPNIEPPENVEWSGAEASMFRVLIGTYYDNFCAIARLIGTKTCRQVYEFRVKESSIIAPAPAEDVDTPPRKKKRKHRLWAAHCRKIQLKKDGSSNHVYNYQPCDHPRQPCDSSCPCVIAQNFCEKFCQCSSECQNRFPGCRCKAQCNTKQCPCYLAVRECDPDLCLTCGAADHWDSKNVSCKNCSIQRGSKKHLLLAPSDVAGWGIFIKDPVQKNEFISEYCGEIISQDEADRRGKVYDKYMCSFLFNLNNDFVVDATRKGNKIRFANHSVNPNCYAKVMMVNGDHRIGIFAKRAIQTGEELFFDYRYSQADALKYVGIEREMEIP

## COc1cc2c(NC3CCN(C(C)C)CC3)nc(N3CCC(F)(F)CC3)nc2cc1OCCCN1CCCC1
[1]
  IC50: 12.6 µM
[2]
  IC50: 26.9 µM
[3]
  IC50: 19 µM
[4]
  IC50: 20.3 µM
[5]
  IC50: 25.4 µM
[6]
  IC50: 22 µM
[7]
  IC50: 5.85 µM
[8]
  IC50: 10.8 µM
[9]
  IC50: 23.7 µM
[10]
  inhibition: Active
[11]
  Activity: inactive
[12]
  inhibition: Active
[13]
  inhibition: Active
[14]
  IC50: 58.7 µM
[15]
  Activity: Active
[16]
  Activity: Active
[17]
  IC50: 5 µM
[18]
  IC50 at 72 h: 36.9 µM
[19]
  IC50 at 72 h: 6.91 µM
[20]
  IC50: 6.81 µM
[21]
  IC50: 17.8 µM
[22]
  Activity: Active
[23]
  Activity: Active
[24]
  inhibition: Active
[25]
  inhibition: Active
[26]
  inhibition: Active
[27]
  inhibition: Active
